Measurements reported in PubChem BioAssay (NCI).
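Compound exposure: 48 hours, 5 concentrations, 96-well plates. Abbreviation: GI50, concentration required for 50% inhibition of growth. At the TGI there is no net growth.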

Key:
Assay in all cases: NCI tumour cell line growth inhibition, 48 h
[1] = tested on: NCI-H522 lung
[2] = tested on: NCI-H460 lung
[3] = tested on: SK-MEL-28 melanoma
[4] = tested on: SK-MEL-2 melanoma
[5] = tested on: NCI-H226 lung
[6] = tested on: A498 renal
[7] = tested on: NCI-H23 lung
[8] = tested on: SF-295 CNS
[9] = tested on: OVCAR-4 ovarian
[10] = tested on: HS 578T breast
[11] = tested on: COLO 205 colon
[12] = tested on: SF-268 CNS
[13] = tested on: M14 melanoma
[14] = tested on: NCI/ADR-RES ovarian
[15] = tested on: HCT-116 colon
[16] = tested on: U251 CNS
[17] = tested on: CCRF-CEM leukemia
[18] = tested on: MOLT-4 leukemia
[19] = tested on: HCT-15 colon
[20] = tested on: TK-10 renal
[21] = tested on: A549 NSCLC
[22] = tested on: HOP-62 NSCLC
[23] = tested on: SNB-75 CNS
[24] = tested on: HOP-92 NSCLC
[25] = tested on: MCF7 breast
[26] = tested on: EKVX NSCLC
[27] = tested on: MDA-MB-231 breast
[28] = tested on: 786-0 renal
[29] = tested on: K-562 leukemia
[30] = tested on: T-47D breast
[31] = tested on: MDA-MB-435
[32] = tested on: SF-539 CNS
[33] = tested on: PC-3 prostate
[34] = tested on: HCC-2998 colon
[35] = tested on: SK-MEL-5 melanoma
[36] = tested on: KM12 colon
[37] = tested on: OVCAR-8 ovarian
[38] = tested on: UACC-62 melanoma
[39] = tested on: IGROV1 ovarian
[40] = tested on: OVCAR-3 ovarian
[41] = tested on: HT29 colon
[42] = tested on: HL-60(TB) leukemia
[43] = tested on: DU-145 prostate
[44] = tested on: OVCAR-5 ovarian
[45] = tested on: UO-31 renal
[46] = tested on: RPMI-8226 leukemia
[47] = tested on: SK-OV-3 ovarian
[48] = tested on: SW-620 colon
[49] = tested on: RXF 393 renal
[50] = tested on: SNB-19 CNS
[51] = tested on: BT-549 breast
[52] = tested on: ACHN renal
[53] = tested on: LOX IMVI melanoma
[54] = tested on: CAKI-1 renal
[55] = tested on: SN12C renal
[56] = tested on: MALME-3M melanoma

COc1cc(-c2csc(NC(=O)Nc3cc(C(F)(F)F)cc(C(F)(F)F)c3)n2)cc(OC)c1OC
GI50 [1]: 1.6 µM
TGI [1]: 5 µM
GI50 [2]: 2.74 µM
TGI [2]: 10.8 µM
GI50 [3]: 3.02 µM
TGI [3]: 12.6 µM
GI50 [4]: 1.66 µM
TGI [4]: 5.85 µM
GI50 [5]: 2.87 µM
TGI [5]: 12 µM
GI50 [6]: 1.11 µM
TGI [6]: 5.08 µM
GI50 [7]: 2.38 µM
TGI [7]: 13.2 µM
GI50 [8]: 1.83 µM
TGI [8]: 5.46 µM
GI50 [9]: 2.68 µM
TGI [9]: 17 µM
GI50 [10]: 2.24 µM
TGI [10]: 6.9 µM
GI50 [11]: 1.8 µM
TGI [11]: 3.45 µM
GI50 [12]: 3.64 µM
TGI [12]: 15.7 µM
GI50 [13]: 2.35 µM
TGI [13]: 6.24 µM
GI50 [14]: 2.65 µM
TGI [14]: 12.1 µM
GI50 [15]: 2.55 µM
TGI [15]: 10.2 µM
GI50 [16]: 2.73 µM
TGI [16]: 10.7 µM
GI50 [17]: 2.26 µM
TGI [17]: 7.83 µM
GI50 [18]: 2.17 µM
TGI [18]: 8.99 µM
GI50 [19]: 2.51 µM
TGI [19]: 10.9 µM
GI50 [20]: 2.45 µM
TGI [20]: 10.3 µM
GI50 [21]: 2.62 µM
TGI [21]: 12.4 µM
GI50 [22]: 2.11 µM
TGI [22]: 6.36 µM
GI50 [23]: 2.27 µM
TGI [23]: 10.6 µM
GI50 [24]: 1.35 µM
TGI [24]: 4.36 µM
GI50 [25]: 2.41 µM
TGI [25]: 11.8 µM
GI50 [26]: 2.38 µM
TGI [26]: 13.9 µM
GI50 [27]: 1.59 µM
TGI [27]: 3.92 µM
GI50 [28]: 3.17 µM
TGI [28]: 11.8 µM
GI50 [29]: 1.92 µM
TGI [29]: 12 µM
GI50 [30]: 1.93 µM
TGI [30]: 9.65 µM
GI50 [31]: 2.81 µM
TGI [31]: 10.5 µM
GI50 [32]: 2.28 µM
TGI [32]: 6.75 µM
GI50 [33]: 1 µM
TGI [33]: 7.55 µM
GI50 [34]: 3.81 µM
TGI [34]: 14.4 µM
GI50 [35]: 1.57 µM
TGI [35]: 3.24 µM
GI50 [36]: 2.49 µM
TGI [36]: 11.8 µM
GI50 [37]: 2.73 µM
TGI [37]: 13 µM
GI50 [38]: 1.59 µM
TGI [38]: 4.53 µM
GI50 [39]: 4.25 µM
TGI [39]: 18.1 µM
GI50 [40]: 2.39 µM
TGI [40]: 10.6 µM
GI50 [41]: 2.67 µM
TGI [41]: 11.2 µM
GI50 [42]: 2.43 µM
TGI [42]: 6.89 µM
GI50 [43]: 3.6 µM
TGI [43]: 18.3 µM
GI50 [44]: 3.29 µM
TGI [44]: 14 µM
GI50 [45]: 2.85 µM
TGI [45]: 12.1 µM
GI50 [46]: 0.967 µM
TGI [46]: 3.76 µM
GI50 [47]: 2.59 µM
TGI [47]: 8.57 µM
GI50 [48]: 3.21 µM
TGI [48]: 14.6 µM
GI50 [49]: 2.13 µM
TGI [49]: 6.17 µM
GI50 [50]: 3.56 µM
TGI [50]: 15.7 µM
GI50 [51]: 2.38 µM
TGI [51]: 7.84 µM
GI50 [52]: 2.78 µM
TGI [52]: 10.6 µM
GI50 [53]: 3.04 µM
TGI [53]: 12.3 µM
GI50 [54]: 2.88 µM
TGI [54]: 12.1 µM
GI50 [55]: 3 µM
TGI [55]: 11.8 µM
GI50 [56]: 2.15 µM
TGI [56]: 7.32 µM
